Assay results published in patent publication US11178873B2, “Cyclic N-carboxamide compounds useful as herbicides” (FMC CORPORATION, priority 2015, dated 2021).

Key:
Type in all cases: in vivo
[1] = system: pigweed (Amaranthus retroflexus); experiment: Test A preemergence, pigweed; settings: 0 to 100 scale, 0 no effect, 100 complete control
Procedure, shortened: (§1)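 Visual injury scores (0 = no effect, 100 = complete control) were assigned roughly 10 d after treatment by comparison with untreated controls. Chemicals, formulated in a non-phytotoxic solvent mixture containing surfactant, were applied as a preemergence directed soil spray or postemergence to one- to two-leaf plants 2 to 10 cm tall.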

[2] = system: ryegrass, Italian (Italian ryegrass, Lolium multiflorum); experiment: Test A postemergence, ryegrass, Italian; settings: 0 to 100 scale, 0 no effect, 100 complete control
Procedure, shortened: as §1

[3] = system: foxtail, giant (giant foxtail, Setaria faberii); experiment: Test A postemergence, foxtail, giant; settings: 0 to 100 scale, 0 no effect, 100 complete control
Procedure, shortened: as §1

[4] = system: foxtail, giant (giant foxtail, Setaria faberii); experiment: Test A preemergence, foxtail, giant; settings: 0 to 100 scale, 0 no effect, 100 complete control
Procedure, shortened: as §1

[5] = system: galium (catchweed bedstraw, Galium aparine); experiment: Test A postemergence, galium; settings: 0 to 100 scale, 0 no effect, 100 complete control
Procedure, shortened: as §1

[6] = system: barnyardgrass (Echinochloa crus-galli); experiment: Test B flooded paddy test, barnyardgrass; settings: Flood, scale 0 to 100 (0 no effect, 100 complete control), 13 to 15 d
Procedure, shortened: (§2)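 Plants grown to the 2-leaf stage. At treatment, pots were flooded to 3 cm above the soil, compound was applied directly to the paddy water, and that depth was held throughout. After 13 to 15 d in the greenhouse, response was rated visually against controls on a 0 (no effect) to 100 (complete control) scale.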

[7] = system: sedge, umbrella (small-flower umbrella sedge, Cyperus difformis); experiment: Test B flooded paddy test, sedge, umbrella; settings: Flood, scale 0 to 100 (0 no effect, 100 complete control), 13 to 15 d
Procedure, shortened: as §2

corn (Zea mays) = experiment: Test A postemergence, corn; settings: 0 to 100 scale, 0 no effect, 100 complete control
Procedure, shortened: as §1

kochia (Kochia scoparia) [8] = experiment: Test A postemergence, kochia; settings: 0 to 100 scale, 0 no effect, 100 complete control
Procedure, shortened: as §1

[9] = system: barnyardgrass (Echinochloa crus-galli); experiment: Test A postemergence, barnyardgrass; settings: 0 to 100 scale, 0 no effect, 100 complete control
Procedure, shortened: as §1

rice (Oryza sativa) = experiment: Test B flooded paddy test, rice; settings: Flood, scale 0 to 100 (0 no effect, 100 complete control), 13 to 15 d
Procedure, shortened: as §2

[10] = system: ragweed (common ragweed, Ambrosia elatior); experiment: Test A postemergence, ragweed; settings: 0 to 100 scale, 0 no effect, 100 complete control
Procedure, shortened: as §1

[11] = system: blackgrass (Alopecurus myosuroides); experiment: Test A postemergence, blackgrass; settings: 0 to 100 scale, 0 no effect, 100 complete control
Procedure, shortened: as §1

[12] = system: ragweed (common ragweed, Ambrosia elatior); experiment: Test A preemergence, ragweed; settings: 0 to 100 scale, 0 no effect, 100 complete control
Procedure, shortened: as §1

kochia (Kochia scoparia) [13] = experiment: Test A preemergence, kochia; settings: 0 to 100 scale, 0 no effect, 100 complete control
Procedure, shortened: as §1

[14] = system: barnyardgrass (Echinochloa crus-galli); experiment: Test A preemergence, barnyardgrass; settings: 0 to 100 scale, 0 no effect, 100 complete control
Procedure, shortened: as §1

[15] = system: ducksalad (Heteranthera limosa); experiment: Test B flooded paddy test, ducksalad; settings: Flood, scale 0 to 100 (0 no effect, 100 complete control), 13 to 15 d
Procedure, shortened: as §2

[16] = system: pigweed (Amaranthus retroflexus); experiment: Test A postemergence, pigweed; settings: 0 to 100 scale, 0 no effect, 100 complete control
Procedure, shortened: as §1

[17] = system: wheat (Triticum aestivum); experiment: Test A postemergence, wheat; settings: 0 to 100 scale, 0 no effect, 100 complete control
Procedure, shortened: as §1

[18] = system: ryegrass, Italian (Italian ryegrass, Lolium multiflorum); experiment: Test A preemergence, ryegrass, Italian; settings: 0 to 100 scale, 0 no effect, 100 complete control
Procedure, shortened: as §1

Row | Structure (SMILES) | Plant response rating, Pigweed ([1]; 31 g ai/ha) | Plant response rating, Pigweed ([1]; 125 g ai/ha) | Plant response rating, Ryegrass, Italian ([2]; 31 g ai/ha) | Plant response rating, Ryegrass, Italian ([2]; 125 g ai/ha) | Plant response rating, Foxtail, Giant ([3]; 31 g ai/ha) | Plant response rating, Foxtail, Giant ([3]; 125 g ai/ha) | Plant response rating, Foxtail, Giant ([4]; 31 g ai/ha) | Plant response rating, Foxtail, Giant ([4]; 125 g ai/ha) | Plant response rating, Galium ([5]; 125 g ai/ha) | Plant response rating, Corn (corn (Zea mays); 125 g ai/ha) | Plant response rating, Kochia (kochia (Kochia scoparia) [8]; 125 g ai/ha) | Plant response rating, Barnyardgrass ([9]; 125 g ai/ha) | Plant response rating, Ragweed ([10]; 125 g ai/ha) | Plant response rating, Blackgrass ([11]; 125 g ai/ha) | Plant response rating, Ragweed ([12]; 125 g ai/ha) | Plant response rating, Kochia (kochia (Kochia scoparia) [13]; 125 g ai/ha) | Plant response rating, Barnyardgrass ([14]; 125 g ai/ha) | Plant response rating, Pigweed ([16]; 125 g ai/ha) | Plant response rating, Wheat ([17]; 125 g ai/ha) | Plant response rating, Ryegrass, Italian ([18]; 125 g ai/ha) | other results
1 | O=C1CCC(c2ccc(Cl)cc2)N1C(=O)Nc1ccccc1C(F)(F)F (stereo not drawn) [Compound 23] | 0 | 0 | 0 | 0 | 0 | 0 | 0 | 0 | 0 | 0 | 0 | 0 | 0 | 0 | 0 | 0 | 0 | 0 | 0 | 0 | Plant response rating, Galium ([5]; 31 g ai/ha): 0; Plant response rating, Barnyardgrass ([6]; 250 g ai/ha): 0; Plant response rating, Sedge, Umbrella ([7]; 250 g ai/ha): 0; Plant response rating, Corn (corn (Zea mays); 31 g ai/ha): 0; Plant response rating, Kochia (kochia (Kochia scoparia) [8]; 31 g ai/ha): 0; Plant response rating, Barnyardgrass ([9]; 31 g ai/ha): 0; Plant response rating, Rice (rice (Oryza sativa); 250 g ai/ha): 0; Plant response rating, Ragweed ([10]; 31 g ai/ha): 0; Plant response rating, Blackgrass ([11]; 31 g ai/ha): 0; Plant response rating, Ragweed ([12]; 31 g ai/ha): 0; Plant response rating, Kochia (kochia (Kochia scoparia) [13]; 31 g ai/ha): 0; Plant response rating, Barnyardgrass ([14]; 31 g ai/ha): 0; Plant response rating, Ducksalad ([15]; 250 g ai/ha): 0; Plant response rating, Pigweed ([16]; 31 g ai/ha): 0; Plant response rating, Wheat ([17]; 31 g ai/ha): 0; Plant response rating, Ryegrass, Italian ([18]; 31 g ai/ha): 0
2 | O=C1NCC(c2ccc(F)c(F)c2)N1C(=O)Nc1ccccc1 (stereo not drawn) [Compound 7] |  | 0 |  | 0 |  | 0 |  | 0 | 0 | 0 | 0 | 0 | 0 | 0 | 0 | 0 | 0 | 0 | 0 | 0 | Plant response rating, Pigweed ([1]; 500 g ai/ha): 0; Plant response rating, Ryegrass, Italian ([2]; 500 g ai/ha): 0; Plant response rating, Foxtail, Giant ([3]; 500 g ai/ha): 0; Plant response rating, Foxtail, Giant ([4]; 500 g ai/ha): 0; Plant response rating, Galium ([5]; 500 g ai/ha): 0; Plant response rating, Barnyardgrass ([6]; 1000 g ai/ha): 0; Plant response rating, Sedge, Umbrella ([7]; 1000 g ai/ha): 0; Plant response rating, Corn (corn (Zea mays); 500 g ai/ha): 0; Plant response rating, Kochia (kochia (Kochia scoparia) [8]; 500 g ai/ha): 0; Plant response rating, Barnyardgrass ([9]; 500 g ai/ha): 0; Plant response rating, Rice (rice (Oryza sativa); 1000 g ai/ha): 0; Plant response rating, Ragweed ([10]; 500 g ai/ha): 0; Plant response rating, Blackgrass ([11]; 500 g ai/ha): 0; Plant response rating, Ragweed ([12]; 500 g ai/ha): 0; Plant response rating, Kochia (kochia (Kochia scoparia) [13]; 500 g ai/ha): 0; Plant response rating, Barnyardgrass ([14]; 500 g ai/ha): 0; Plant response rating, Ducksalad ([15]; 1000 g ai/ha): 0; Plant response rating, Pigweed ([16]; 500 g ai/ha): 0; Plant response rating, Wheat ([17]; 500 g ai/ha): 0; Plant response rating, Ryegrass, Italian ([18]; 500 g ai/ha): 0
3 | O=C1NCC(c2ccccc2)N1C(=O)Nc1ccccc1F (stereo not drawn) [Compound 5] |  | 0 |  | 0 |  | 0 |  | 0 | 0 | 0 | 0 | 0 | 0 | 0 | 0 | 0 | 0 | 0 | 0 | 0 | Plant response rating, Pigweed ([1]; 500 g ai/ha): 0; Plant response rating, Ryegrass, Italian ([2]; 500 g ai/ha): 0; Plant response rating, Foxtail, Giant ([3]; 500 g ai/ha): 0; Plant response rating, Foxtail, Giant ([4]; 500 g ai/ha): 0; Plant response rating, Galium ([5]; 500 g ai/ha): 0; Plant response rating, Barnyardgrass ([6]; 1000 g ai/ha): 0; Plant response rating, Sedge, Umbrella ([7]; 1000 g ai/ha): 0; Plant response rating, Corn (corn (Zea mays); 500 g ai/ha): 0; Plant response rating, Kochia (kochia (Kochia scoparia) [8]; 500 g ai/ha): 0; Plant response rating, Barnyardgrass ([9]; 500 g ai/ha): 0; Plant response rating, Rice (rice (Oryza sativa); 1000 g ai/ha): 0; Plant response rating, Ragweed ([10]; 500 g ai/ha): 0; Plant response rating, Blackgrass ([11]; 500 g ai/ha): 0; Plant response rating, Ragweed ([12]; 500 g ai/ha): 0; Plant response rating, Kochia (kochia (Kochia scoparia) [13]; 500 g ai/ha): 0; Plant response rating, Barnyardgrass ([14]; 500 g ai/ha): 0; Plant response rating, Ducksalad ([15]; 1000 g ai/ha): 90; Plant response rating, Pigweed ([16]; 500 g ai/ha): 0; Plant response rating, Wheat ([17]; 500 g ai/ha): 0; Plant response rating, Ryegrass, Italian ([18]; 500 g ai/ha): 0
4 | CN1CC(c2cccc(C(F)(F)F)c2)N(C(=O)Nc2ccc(F)cc2F)C1=O (stereo not drawn) [Compound 17] | 0 | 0 | 0 | 0 | 0 | 10 | 50 | 80 | 0 | 0 | 0 | 10 | 0 | 0 | 0 | 20 | 50 | 0 | 0 | 0 | Plant response rating, Galium ([5]; 31 g ai/ha): 0; Plant response rating, Barnyardgrass ([6]; 250 g ai/ha): 0; Plant response rating, Sedge, Umbrella ([7]; 250 g ai/ha): 0; Plant response rating, Corn (corn (Zea mays); 31 g ai/ha): 0; Plant response rating, Kochia (kochia (Kochia scoparia) [8]; 31 g ai/ha): 0; Plant response rating, Barnyardgrass ([9]; 31 g ai/ha): 0; Plant response rating, Rice (rice (Oryza sativa); 250 g ai/ha): 0; Plant response rating, Ragweed ([10]; 31 g ai/ha): 0; Plant response rating, Blackgrass ([11]; 31 g ai/ha): 0; Plant response rating, Ragweed ([12]; 31 g ai/ha): 0; Plant response rating, Kochia (kochia (Kochia scoparia) [13]; 31 g ai/ha): 0; Plant response rating, Barnyardgrass ([14]; 31 g ai/ha): 0; Plant response rating, Ducksalad ([15]; 250 g ai/ha): 40; Plant response rating, Pigweed ([16]; 31 g ai/ha): 0; Plant response rating, Wheat ([17]; 31 g ai/ha): 0; Plant response rating, Ryegrass, Italian ([18]; 31 g ai/ha): 0
